Laboratory results taken from BigSolDB 2.1.

CO/C=C(/C(=O)OC)c1ccccc1Oc1cc(Oc2ccccc2C#N)ncn1
solubility (mole fraction)
Settings | 288.15 K | 293.15 K | 298.15 K | 303.15 K | 308.15 K | 313.15 K | 318.15 K | 323.15 K | 328.15 K
in ethanol | 0.000747 | 0.000923 | 0.00118 | 0.00171 | 0.0022 | 0.00296 | 0.00422 | 0.0056 | 0.00786
in ethyl acetate | 0.0246 | 0.0283 | 0.0319 | 0.0415 | 0.0473 | 0.059 | 0.0756 | 0.0879 | 0.108
in isobutanol | 0.000441 | 0.000628 | 0.00084 | 0.00129 | 0.0017 | 0.00231 | 0.00324 | 0.00441 | 0.00571
in isopropanol | 0.000339 | 0.000476 | 0.000649 | 0.00102 | 0.00134 | 0.00183 | 0.0026 | 0.00358 | 0.00452
in methanol | 0.00135 | 0.00165 | 0.00205 | 0.0027 | 0.00368 | 0.00497 | 0.00683 | 0.0096 | 0.0144
in n-butanol | 0.000514 | 0.000733 | 0.000955 | 0.00149 | 0.00185 | 0.00246 | 0.0034 | 0.00476 | 0.00635
in n-propanol | 0.000654 | 0.000829 | 0.00108 | 0.00162 | 0.00207 | 0.00277 | 0.00387 | 0.00527 | 0.0072
